Key:
[1] = target: T1, IRβ (unphosphorylated beta subunit of insulin receptor) (Homo sapiens, UniProt P06213); assay: surface plasmon resonance (Biacore T200), IRβ immobilised on CM5; format: binding
T1 construct: gene INSR; beta subunit, commercial recombinant protein; unphosphorylated; immobilised on CM5 chip

[2] = target: T2, insulin receptor (InsR Kinase Assay) (Homo sapiens, UniProt P06213); assay: InsR kinase assay, ADP-Glo (ADP production); format: biochemical; conditions: activator; 50 μM ATP, substrate peptide, room temperature, 60 min
T2 construct: commercial kinase from InsR Kinase Assay (Promega)

[3] = target: T2, insulin receptor (InsR Kinase Assay); assay: InsR kinase assay, ADP-Glo (ADP production); format: biochemical; conditions: 50 μM ATP, substrate peptide, room temperature; turnover to ADP only

T2 sequence (P06213 1011-1382 limits assumed): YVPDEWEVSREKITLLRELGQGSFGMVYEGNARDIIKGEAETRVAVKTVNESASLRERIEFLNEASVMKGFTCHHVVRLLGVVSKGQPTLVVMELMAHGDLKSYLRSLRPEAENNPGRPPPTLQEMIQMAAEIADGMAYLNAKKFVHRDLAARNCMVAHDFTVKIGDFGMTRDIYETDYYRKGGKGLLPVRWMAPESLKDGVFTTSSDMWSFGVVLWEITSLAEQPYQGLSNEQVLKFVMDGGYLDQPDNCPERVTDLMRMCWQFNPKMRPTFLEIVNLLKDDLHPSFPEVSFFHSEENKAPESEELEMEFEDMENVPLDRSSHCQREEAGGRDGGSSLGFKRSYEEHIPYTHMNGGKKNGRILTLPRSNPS
T1 sequence (P06213 763-1382 limits assumed): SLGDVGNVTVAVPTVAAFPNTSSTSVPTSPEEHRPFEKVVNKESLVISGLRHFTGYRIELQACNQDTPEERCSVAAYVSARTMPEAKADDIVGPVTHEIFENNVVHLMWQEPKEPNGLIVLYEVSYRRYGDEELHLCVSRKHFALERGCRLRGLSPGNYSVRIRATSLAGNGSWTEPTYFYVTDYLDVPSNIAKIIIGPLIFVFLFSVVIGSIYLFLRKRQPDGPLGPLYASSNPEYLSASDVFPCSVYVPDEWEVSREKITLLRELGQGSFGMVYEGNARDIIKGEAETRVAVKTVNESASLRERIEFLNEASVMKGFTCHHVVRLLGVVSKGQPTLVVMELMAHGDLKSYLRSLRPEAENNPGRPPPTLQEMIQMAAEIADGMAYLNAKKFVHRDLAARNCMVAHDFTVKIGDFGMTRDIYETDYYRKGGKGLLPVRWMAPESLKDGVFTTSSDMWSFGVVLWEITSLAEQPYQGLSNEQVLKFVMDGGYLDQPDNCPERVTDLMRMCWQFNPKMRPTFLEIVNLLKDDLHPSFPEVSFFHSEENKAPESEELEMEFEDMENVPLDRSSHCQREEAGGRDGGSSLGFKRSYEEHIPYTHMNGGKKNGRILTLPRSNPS

| Kd [1] [µM] | % increase of kinase activity at 100 nM [2] [%] | Structure (SMILES) | InsR kinase assay, ADP-Glo (ADP production) [3] |
| --- | --- | --- | --- |
| 4.34 | 50 | CC1=NN(c2ccc(C(=O)O)cc2)C(=O)C1=Cc1ccc(-c2cc(C)c(C)cc2[N+](=O)[O-])o1 [C646] | – |
| – | – | Nc1ncnc2c1ncn2[C@@H]1O[C@H](COP(=O)(O)OP(=O)(O)OP(=O)(O)O)[C@@H](O)[C@H]1O [ATP] | found a linear curve of ADP production (consumption of ATP by insulin receptor) |

From article PMC8850660, “The P300 acetyltransferase inhibitor C646 promotes membrane translocation of insulin receptor protein substrate and interaction with the insulin receptor” (The Journal of Biological Chemistry, 2022)
